Assay results taken from patent US10681909B2, “Herbicidal triazoles” (FMC Corporation, priority 2014, dated 2020).

Key:
Experiment in all cases: Test E postemergence
dayflower, VA = type: in vivo, Commelina virginica; conditions: scale 0 to 100
From the text: (§1) Seeds of plant species selected from corn (Zea mays), soybean (Glycine max), lambsquarters (Chenopodium album), poinsettia, wild (wild poinsettia, Euphorbia heterophylla), pigweed, palmer (palmer pigweed, Amaranthus palmeri), waterhemp (common waterhemp, Amaranthus rudis), surinam grass (Brachiaria decumbens), crabgrass, large (large crabgrass, Digitaria sanguinalis), crabgrass, Brazilian (Brazilian crabgrass, Digitaria horizontalis), panicum, fall (fall panicum, Panicum dichotomiflorum), foxtail, giant (giant foxtail, Setaria faberii), foxtail, green (green foxtail, Setaria viridis), goosegrass (Eleusine indica), johnsongrass (Sorghum halepense), ragweed (common ragweed, Ambrosia elatior), barnyardgrass (Echinochloa crus-galli), sandbur (southern sandbur, Cenchrus echinatus), arrowleaf sida (Sida rhombifolia), ryegrass, Italian (Italian ryegrass, Lolium multiflorum), dayflower, VA (Virginia dayflower, Commelina virginica), field bindweed (Convolvulus arvensis), cocklebur (common cocklebur, Xanthium strumarium), morningglory (Ipomoea coccinea), nightshade (eastern black nightshade, Solanum ptycanthum), kochia (Kochia scoparia), nutsedge, yellow (yellow nutsedge, Cyperus esculentus), smartweed (ladysthumb smartweed, Polygonum persicaria), velvetleaf (Abutilon theophrasti), horseweed (Conyza canadensis), and beggarticks (hairy beggarticks, Bidens pilosa), were planted into a silt loam soil and treated preemergence with test chemicals formulated in a non-phytotoxic solvent mixture which included a surfactant.
(§2) At the same time, plants from these crop and weed species and also waterhemp_RES1, (ALS & Triazine resistant common waterhemp, Amaranthus rudis), and waterhemp_RES2, (ALS & HPPD resistant common waterhemp, Amaranthus rudis) were planted in pots containing Sunshine Redi-Earth® planting medium comprising spaghnum peat moss, vermiculite, starter nutrients and dolomitic limestone were treated with postemergence applications of test chemicals formulated in the same manner. Plants ranged in height from 2 to 18 cm for postemergence treatments (1- to 4-leaf stage). Treated plants and controls were maintained in a greenhouse for 14 to 21 d, after which time all species were compared to controls and visually evaluated. Plant response ratings, summarized in Table E, are based on a scale of 0 to 100 where 0 is no effect and 100 is complete control. A dash (-) response means no test result.

barnyardgrass = type: in vivo, Echinochloa crus-galli; conditions: scale 0 to 100
From the text: as §1, §2

corn = type: in vivo, Zea mays; conditions: scale 0 to 100
From the text: as §1, §2

panicum, fall = type: in vivo, Panicum dichotomiflorum; conditions: scale 0 to 100
From the text: as §1, §2

crabgrass, Brazilian = type: in vivo, Digitaria horizontalis; conditions: Brazil, scale 0 to 100
From the text: as §1, §2

pigweed, palmer = type: in vivo, Amaranthus palmeri; conditions: scale 0 to 100
From the text: as §1, §2

soybean = type: in vivo, Glycine max; conditions: scale 0 to 100
From the text: as §1, §2

## COc1nc(-c2ccc(Cl)cc2)nn1Cc1ccnc(C(F)(F)F)c1 [Compound 28]
dayflower, VA; 31 g ai/ha
  Plant response rating: 60
dayflower, VA; 62 g ai/ha
  Plant response rating: 70
dayflower, VA; 125 g ai/ha
  Plant response rating: 70
dayflower, VA; 250 g ai/ha
  Plant response rating: 70
barnyardgrass; 31 g ai/ha
  Plant response rating: 20
barnyardgrass; 62 g ai/ha
  Plant response rating: 25
barnyardgrass; 125 g ai/ha
  Plant response rating: 40
barnyardgrass; 250 g ai/ha
  Plant response rating: 40
corn; 31 g ai/ha
  Plant response rating: 15
corn; 62 g ai/ha
  Plant response rating: 20
corn; 125 g ai/ha
  Plant response rating: 20
corn; 250 g ai/ha
  Plant response rating: 30
panicum, fall; 31 g ai/ha
  Plant response rating: 15
panicum, fall; 62 g ai/ha
  Plant response rating: 20
panicum, fall; 125 g ai/ha
  Plant response rating: 20
panicum, fall; 250 g ai/ha
  Plant response rating: 20
crabgrass, Brazilian; 31 g ai/ha
  Plant response rating: 40
crabgrass, Brazilian; 62 g ai/ha
  Plant response rating: 50
crabgrass, Brazilian; 125 g ai/ha
  Plant response rating: 50
crabgrass, Brazilian; 250 g ai/ha
  Plant response rating: 50
pigweed, palmer; 31 g ai/ha
  Plant response rating: 100
pigweed, palmer; 62 g ai/ha
  Plant response rating: 90
pigweed, palmer; 125 g ai/ha
  Plant response rating: 90
pigweed, palmer; 250 g ai/ha
  Plant response rating: 95
soybean; 31 g ai/ha
  Plant response rating: 70
soybean; 62 g ai/ha
  Plant response rating: 75
soybean; 125 g ai/ha
  Plant response rating: 95
soybean; 250 g ai/ha
  Plant response rating: 80
